The text below walks through data of patent US20090312288A1 (TAKEDA PHARMACEUTICAL COMPANY LIMITED, priority 2008, published 2009).

The structures appear in SMILES notation. Bounds are passed on as bounds.

The target in this assay is Aurora B/INCENP (Homo sapiens, UniProt Q96GD4). Kind of assay: Determination of inhibition of AIK: Aurora B/INCENP direct fluorescence polarization (IMAP) assay. The format is biochemical. As to conditions: 10 uM ATP, 0.8 nM Aurora B/INCENP; values given as bins; read-out: IC50 of Exemplified Compounds Against AIK B. Here is the method: Detection of the reaction product is performed by addition of Progressive IMAP binding reagent (Molecular Devices). Reaction product may be determined quantitatively by FP using an Analyst HT plate reader (Molecular Devices) with an excitation wavelength at 485 nm and emission at 530 nm and using a Fluorescein 505 dichroic mirror.
Chain of Aurora B/INCENP (Q96GD4 whole entry): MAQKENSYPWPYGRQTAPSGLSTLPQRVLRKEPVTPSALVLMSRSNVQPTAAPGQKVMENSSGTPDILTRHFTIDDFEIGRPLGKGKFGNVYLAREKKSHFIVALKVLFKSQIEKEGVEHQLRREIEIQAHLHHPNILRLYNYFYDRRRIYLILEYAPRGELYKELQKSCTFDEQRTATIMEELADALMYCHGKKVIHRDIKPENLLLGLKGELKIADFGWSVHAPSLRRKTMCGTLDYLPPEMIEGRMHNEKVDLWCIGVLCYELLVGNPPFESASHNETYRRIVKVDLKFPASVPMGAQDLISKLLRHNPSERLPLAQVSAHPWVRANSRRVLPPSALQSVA
Chain of Aurora B/INCENP (Q9NQS7 whole entry partner): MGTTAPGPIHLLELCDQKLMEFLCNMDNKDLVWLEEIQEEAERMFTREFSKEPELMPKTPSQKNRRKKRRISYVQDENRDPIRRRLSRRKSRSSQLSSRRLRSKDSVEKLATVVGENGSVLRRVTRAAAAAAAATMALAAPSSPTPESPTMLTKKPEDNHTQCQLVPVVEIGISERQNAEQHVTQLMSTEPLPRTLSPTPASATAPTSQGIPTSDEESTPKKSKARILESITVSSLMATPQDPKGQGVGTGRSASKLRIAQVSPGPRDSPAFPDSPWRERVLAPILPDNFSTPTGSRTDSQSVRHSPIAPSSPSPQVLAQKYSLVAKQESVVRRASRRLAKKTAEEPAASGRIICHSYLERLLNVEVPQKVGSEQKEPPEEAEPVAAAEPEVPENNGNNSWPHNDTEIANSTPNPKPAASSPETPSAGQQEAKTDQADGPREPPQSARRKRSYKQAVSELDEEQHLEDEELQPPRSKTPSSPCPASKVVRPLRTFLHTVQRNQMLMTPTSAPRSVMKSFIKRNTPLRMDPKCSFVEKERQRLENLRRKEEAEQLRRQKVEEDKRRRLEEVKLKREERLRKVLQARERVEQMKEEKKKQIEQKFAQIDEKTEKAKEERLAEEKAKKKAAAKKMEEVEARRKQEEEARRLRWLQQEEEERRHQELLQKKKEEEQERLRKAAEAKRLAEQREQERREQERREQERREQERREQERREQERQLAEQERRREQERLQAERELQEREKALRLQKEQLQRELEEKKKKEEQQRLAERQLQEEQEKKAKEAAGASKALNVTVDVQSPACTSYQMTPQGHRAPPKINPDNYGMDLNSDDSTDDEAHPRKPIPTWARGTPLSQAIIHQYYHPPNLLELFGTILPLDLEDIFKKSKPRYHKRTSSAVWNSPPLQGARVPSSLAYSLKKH
The assay reaction may be initiated as follows: 2 ul of (3×) 300 nM Fl-Peptide/30 uM ATP was added to each well of the plate, followed by the addition of 2 ul of (3×) inhibitor (2 fold serial dilutions for 11 data points for each inhibitor) containing 15% DMSO. Two microliters of (3×) 2.4 nM AuroraB/INCENP solution may be added to initiate the reaction (final enzyme concentration was 0.8 nM for Aurora B/INCENP). The reaction mixture may then be incubated at room temperature for 45 min, and quenched and developed by addition of 20 ul of 1 to 400 diluted Progressive IMAP binding reagent in 1× proprietary Progressive IMAP binding buffer A. Fluorescence polarization readings of the resulting reaction mixtures may be measured after a 60-minute incubation at room temperature.
IC50 values may be calculated by non-linear curve fitting of the compound concentrations and fluorescent polarization values to the standard IC50 equation.
A general note: Fluorescence polarisation rises when a labelled molecule tumbles more slowly, as on binding a larger partner.
As to `c1ccc(-c2cccc3[nH]c4ncccc4c23)cc1` [Compound 5, 5-phenyl-9H-pyrido[2,3-b]indole], the IC50 was above 13 nM.
Under `CS(=O)(=O)c1cccc(-c2cccc3[nH]c4ncccc4c23)c1` [Compound 8, 5-(3-(methylsulfonyl)phenyl)-9H-pyrido[2,3-b]indole] stands above 13 nM; under `CCS(=O)(=O)c1cccc(-c2cccc3[nH]c4ncccc4c23)c1` [Compound 9, 5-(3-(ethylsulfonyl)phenyl)-9H-pyrido[2,3-b]indole], above 13 nM.
The figure for `Cc1cccc(-c2cccc3[nH]c4ncccc4c23)c1` [Compound 11, 5-m-tolyl-9H-pyrido[2,3-b]indole] is above 13 nM; for `O=S(=O)(NC1CC1)c1cccc(-c2cccc3[nH]c4ncccc4c23)c1` [Compound 12, N-cyclopropyl-3-(9H-pyrido[2,3-b]indol-5-yl)benzenesulfonamide] it is above 13 nM.
With `CNS(=O)(=O)c1cc(-c2ccc(C)c3[nH]c4ncc(C)cc4c23)ccc1OC` [Compound 14, 5-(3,8-dimethyl-9H-pyrido[2,3-b]indol-5-yl)-2-methoxy-N-methylbenzenesulfonamide], the IC50 is below 4 nM.
On to `CNS(=O)(=O)c1cccc(-c2ccc(C)c3[nH]c4ncc(C)cc4c23)c1` [Compound 15, 3-(3,8-dimethyl-9H-pyrido[2,3-b]indol-5-yl)-N-methylbenzenesulfonamide], for which the IC50 is below 4 nM.
`Cc1cnc2[nH]c3c(C)ccc(-c4cccc(S(=O)(=O)N(C)C)c4)c3c2c1` [Compound 16, 3-(3,8-dimethyl-9H-pyrido[2,3-b]indol-5-yl)-N,N-dimethylbenzenesulfonamide]: the IC50 was in the range of 5.6 to 8.5 nM.
In the case of `CCS(=O)(=O)c1cccc(-c2ccc(C)c3[nH]c4ncc(C)cc4c23)c1` [Compound 18, 5-(3-(ethylsulfonyl)phenyl)-3,8-dimethyl-9H-pyrido[2,3-b]indole], the half-inhibitory concentration (IC50) is 5.6 to 8.5 nM.
Take `Cc1cnc2[nH]c3c(C)ccc(-c4cccc(C(=O)NC5CC5)c4)c3c2c1` [Compound 20, N-cyclopropyl-3-(3,8-dimethyl-9H-pyrido[2,3-b]indol-5-yl)benzamide]: the IC50 was in the range of 4 to 5.5 nM.
Regarding `CC(=O)Nc1ccc(Sc2cccc3[nH]c4ncccc4c23)cc1` [Compound 21, N-(4-(9H-pyrido[2,3-b]indol-5-ylthio)phenyl)acetamide], the IC50 is above 13 nM.
On to `c1ccc(Sc2cccc3[nH]c4ncccc4c23)cc1` [Compound 23, 5-(phenylthio)-9H-pyrido[2,3-b]indole], for which the IC50 is above 13 nM.
On to `Cc1cnc2[nH]c3c(C)ccc(SCc4ccccc4)c3c2c1` [Compound 25, 5-(benzylthio)-3,8-dimethyl-9H-pyrido[2,3-b]indole], for which the IC50 was above 13 nM.
The figure for `CCS(=O)(=O)c1cccc(-c2c[nH]c(=O)c3[nH]c4ncc(C)cc4c23)c1` [Compound 32, 5-(3-Ethanesulfonyl-phenyl)-3-methyl-7,9-dihydro-dipyrido[2,3-b;4′,3′-d]pyrrol-8-one] is 5.6 to 8.5 nM.
`CCS(=O)(=O)c1cccc(-c2cnc(Cl)c3[nH]c4ncc(C)cc4c23)c1` [Compound 33, 8-Chloro-5-(3-ethanesulfonyl-phenyl)-3-methyl-9H-dipyrido[2,3-b;4′,3′-d]pyrrole]: the IC50 was 4 to 5.5 nM.
The figure for `CCS(=O)(=O)c1cccc(-c2cnc(NCCCN(C)C)c3[nH]c4ncc(C)cc4c23)c1` [Compound 41, N′-[5-(3-Ethanesulfonyl-phenyl)-3-methyl-9H-dipyrido[2,3-b;4′,3′-d]pyrrol-8-yl]-N,N-dimethyl-propane-1,3-diamine] is 5.6 to 8.5 nM; for `CCS(=O)(=O)c1cccc(-c2cnc(NCCN(C)C)c3[nH]c4ncc(C)cc4c23)c1` [Compound 42, N′-[5-(3-Ethanesulfonyl-phenyl)-3-methyl-9H-dipyrido[2,3-b;4′,3′-d]pyrrol-8-yl]-N,N-dimethyl-ethane-1,2-diamine] it is 8.6 to 13 nM; for `CCS(=O)(=O)c1cccc(-c2cnc(NCCCN3CCOCC3)c3[nH]c4ncc(C)cc4c23)c1` [Compound 43, [5-(3-Ethanesulfonyl-phenyl)-3-methyl-9H-dipyrido[2,3-b;4′,3′-d]pyrrol-8-yl]-(3-morpholin-4-yl-propyl)-amine] it is 5.6 to 8.5 nM.
`CCS(=O)(=O)c1cccc(-c2cnc(NC3CCN(C)CC3)c3[nH]c4ncc(C)cc4c23)c1` [Compound 44, [5-(3-Ethanesulfonyl-phenyl)-3-methyl-9H-dipyrido[2,3-b;4′,3′-d]pyrrol-8-yl]-(1-methyl-piperidin-4-yl)-amine]: the concentration for half-maximal inhibition (IC50) is 8.6 to 13 nM.
The figure for `CCS(=O)(=O)c1cccc(-c2cnc(NCC3CCN(C)CC3)c3[nH]c4ncc(C)cc4c23)c1` [Compound 46, [5-(3-Ethanesulfonyl-phenyl)-3-methyl-9H-dipyrido[2,3-b;4′,3′-d]pyrrol-8-yl]-(1-methyl-piperidin-4-ylmethyl)-amine] is 8.6 to 13 nM; for `CCS(=O)(=O)c1cccc(-c2cnc(C)c3[nH]c4ncc(C)cc4c23)c1` [Compound 47, 5-(3-Ethanesulfonyl-phenyl)-3,8-dimethyl-9H-dipyrido[2,3-b;4′,3′-d]pyrrole] it is 5.6 to 8.5 nM.
Take `CCS(=O)(=O)c1cccc(-c2cnc(C#N)c3[nH]c4ncc(C)cc4c23)c1` [Compound 49, 5-(3-Ethanesulfonyl-phenyl)-3-methyl-9H-dipyrido[2,3-b;4′,3′-d]pyrrole-8-carbonitrile]: the IC50 fell in the range of 8.6 to 13 nM.
Under `CCS(=O)(=O)c1cccc(-c2cnc(C(N)=O)c3[nH]c4ncc(C)cc4c23)c1` [Compound 50, 5-(3-Ethanesulfonyl-phenyl)-3-methyl-9H-dipyrido[2,3-b;4′,3′-d]pyrrole-8-carboxylic acid amide] stands 5.6 to 8.5 nM; under `CCOc1ncc(-c2cccc(S(=O)(=O)CC)c2)c2c1[nH]c1ncc(C)cc12` [Compound 51, 5-(3-Ethanesulfonyl-phenyl)-8-ethoxy-3-methyl-9H-dipyrido[2,3-b;4′,3′-d]pyrrole], 5.6 to 8.5 nM.
The figure for `CCS(=O)(=O)c1cccc(-c2cnc(OCCCN(C)C)c3[nH]c4ncc(C)cc4c23)c1` [Compound 52, {3-[5-(3-Ethanesulfonyl-phenyl)-3-methyl-9H-dipyrido[2,3-b;4′,3′-d]pyrrol-8-yloxy]-propyl}-dimethyl-amine] is 8.6 to 13 nM; for `CCS(=O)(=O)c1cccc(-c2cnc(OCCO)c3[nH]c4ncc(C)cc4c23)c1` [Compound 53, 2-[5-(3-Ethanesulfonyl-phenyl)-3-methyl-9H-dipyrido[2,3-b;4′,3′-d]pyrrol-8-yloxy]-ethanol] it is 4 to 5.5 nM.
Consider `CCS(=O)(=O)c1cccc(-c2cnc(OCC3CCN(C)CC3)c3[nH]c4ncc(C)cc4c23)c1` [Compound 54, 5-(3-Ethanesulfonyl-phenyl)-3-methyl-8-(1-methyl-piperidin-4-ylmethoxy)-9H-dipyrido[2,3-b;4′,3′-d]pyrrole], for which the IC50 fell in the range of 8.6 to 13 nM.
As to `CCS(=O)(=O)c1cccc(-c2cnc(OCCCO)c3[nH]c4ncc(C)cc4c23)c1` [Compound 55, 3-[5-(3-Ethanesulfonyl-phenyl)-3-methyl-9H-dipyrido[2,3-b;4′,3′-d]pyrrol-8-yloxy]-propan-1-ol], the IC50 was below 4 nM.
With `CCS(=O)(=O)c1cccc(-c2cnc(OC[C@H](O)CO)c3[nH]c4ncc(C)cc4c23)c1` [Compound 56], the 50% inhibitory concentration (IC50) is below 4 nM.
In the case of `CCS(=O)(=O)c1cccc(-c2cnc(OC[C@@H](O)CO)c3[nH]c4ncc(C)cc4c23)c1` [Compound 57], the IC50 was 4 to 5.5 nM.
The figure for `CCS(=O)(=O)c1cccc(-c2cnc(OCC(C)(C)O)c3[nH]c4ncc(C)cc4c23)c1` [Compound 58, 1-[5-(3-Ethanesulfonyl-phenyl)-3-methyl-9H-dipyrido[2,3-b;4′,3′-d]pyrrol-8-yloxy]-2-methyl-propan-2-ol] is 8.6 to 13 nM; for `CCS(=O)(=O)c1cccc(-c2cnc(Oc3ccccc3)c3[nH]c4ncc(C)cc4c23)c1` [Compound 59, 5-(3-Ethanesulfonyl-phenyl)-3-methyl-8-phenoxy-9H-dipyrido[2,3-b;4′,3′-d]pyrrole] it is 5.6 to 8.5 nM; for `CCS(=O)(=O)c1cccc(-c2cnc(OCc3cncs3)c3[nH]c4ncc(C)cc4c23)c1` [Compound 60, 5-(3-Ethanesulfonyl-phenyl)-3-methyl-8-(thiazol-5-ylmethoxy)-9H-dipyrido[2,3-b;4′,3′-d]pyrrole] it is 4 to 5.5 nM.
The figure for `CCN1CCC(COc2ncc(-c3cccc(S(=O)(=O)CC)c3)c3c2[nH]c2ncc(C)cc23)CC1` [Compound 61, 5-(3-Ethanesulfonyl-phenyl)-8-(1-ethyl-piperidin-4-ylmethoxy)-3-methyl-9H-dipyrido[2,3-b;4′,3′-d]pyrrole] is 5.6 to 8.5 nM; for `CCS(=O)(=O)c1cccc(-c2cnc(OC[C@H](C)O)c3[nH]c4ncc(C)cc4c23)c1` [Compound 62, (S)-1-[5-(3-Ethanesulfonyl-phenyl)-3-methyl-9H-dipyrido[2,3-b;4′,3′-d]pyrrol-8-yloxy]-propan-2-ol] it is 4 to 5.5 nM; for `CCS(=O)(=O)c1cccc(-c2cnc(OC[C@@H](C)O)c3[nH]c4ncc(C)cc4c23)c1` [Compound 63, (R)-1-[5-(3-Ethanesulfonyl-phenyl)-3-methyl-9H-dipyrido[2,3-b;4′,3′-d]pyrrol-8-yloxy]-propan-2-ol] it is 4 to 5.5 nM.

The IC50 is the concentration at which inhibition is half-maximal.
